Consider seven compounds from ChEMBL document CHEMBL1201862, “PubChem BioAssay data set” (2004).

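Compound exposure: 48 hours, 5 concentrations, 96-well plates. GI50 = concentration required for 50% inhibition of growth.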 The source made the active and inactive calls. Cut-off read from the data, not from the text of the source: active = GI50 up to about 1.1 µM and inactive = higher. Bridge positions count the residues as written; N and C are the ends. Square brackets hold non-standard residues; d marks the D form. Peptide text beside a SMILES is read from it. I, II: the chains in the order shown. * marks the point of attachment. Quinoxaline2carbonyl = O=C(c1cnc2ccccc2n1)*; NMeV = CN[CH](C(=O)O)C(C)C; NMeC = CN[CH](CS)C(=O)O Where only a bound is given, the exact number is not on record here.

Experiment in all cases: NCI tumour cell line growth inhibition, 48 h
Experiment [1] deals with DU-145.
Experiment [2] has as its system HCC 2998.
Experiment [3] has as its system HCT-116.
Experiment [4] deals with Hs-578T.
Experiment [5] has as its system M14.
Experiment [6] concerns MDA-MB-231.
For experiment [7], the system named is MOLT-4.
Experiment [8] has as its system Malme-3M.
In experiment [9] the test system is NCI-H23.
The subject of experiment [10] is NCI-H460.
Experiment [11] has as its system NCI-H522.
For experiment [12], the system named is OVCAR-3.
Experiment [13] relates to OVCAR-4.
Experiment [14] relates to OVCAR-5.
For experiment [15], the system named is SF-268.
Experiment [16] concerns SK-OV-3.
Experiment [17] relates to SN12C.
For experiment [18], the system named is SNB-75.
Experiment [19] relates to SW-620.
For experiment [20], the system named is U-251.

As to `CC1NC(=O)C(NC(=O)c2cnc3ccccc3n2)COC(=O)C(C(C)C)N(C)C(=O)C2CSSCC(C(=O)N(C)C(C(C)C)C(=O)OCC(NC(=O)c3cnc4ccccc4n3)C(=O)NC(C)C(=O)N2C)N(C)C1=O` (stereo not given) (I: Quinoxaline2carbonyl-SA[NMeC][NMeV] / II: Quinoxaline2carbonyl-SA[NMeC][NMeV]; ester I:1-II:C, I:C-II:1; disulfide I:3-II:3; configuration not given here), the GI50 in [1], in experiment [2], in experiment [3], in experiment [4], in [5] and in experiment [6] was < 0.01 µM (active) throughout. The GI50 in [7], in [8], in experiment [9], in [10], in experiment [11] and in experiment [12] was < 0.01 µM (active) each time. The GI50 in experiment [13], in experiment [14], in experiment [15], in [16], in experiment [17] and in experiment [18] was < 0.01 µM (active) in each case. Also, the GI50 in [19] and in [20] was < 0.01 µM (active) throughout.

Regarding `COc1ccc2c(NCCCCCCNc3c4ccccc4nc4cc(OC)ccc34)c3ccccc3nc2c1`, the GI50 was 0.204 µM (active) in experiment [1]; 0.135 µM (active) in experiment [2]; 0.0451 µM (active) in [3]; 0.219 µM (active) in [4]; 0.48 µM (active) in experiment [5]; 0.067 µM (active) in experiment [6]. Further, the GI50 in [7] is 0.0146 µM (active); in experiment [8], 0.427 µM (active); in experiment [9], 0.104 µM (active); in [10], 0.0272 µM (active); in experiment [11] it was 0.0624 µM (active); in experiment [12], 0.162 µM (active). In addition, the GI50 in experiment [13] was 0.103 µM (active); in [14], 0.186 µM (active); in experiment [15], 0.213 µM (active); in [16], 0.245 µM (active); in experiment [17], 0.0676 µM (active); in experiment [18], 0.175 µM (active). The GI50 in [19] was 0.0448 µM (active); in [20], 0.0728 µM (active).

As to `COc1ccc(Nc2[nH]c(C(C)=O)c(N)c2C(=S)Nc2ccccc2)cc1`, the GI50 in experiment [1] is > 100 µM (inactive); in experiment [2] it was 28.2 µM (inactive); in experiment [3], 38.6 µM (inactive); in [4] it was 74 µM (inactive); in [5], 26.8 µM (inactive); in experiment [6] it was 52 µM (inactive). In addition, the GI50 in [7] was > 100 µM (inactive); in [8] it was 50.6 µM (inactive); in [9] it was 65 µM (inactive); in [10] it was 48.3 µM (inactive); in experiment [11] it was 36.6 µM (inactive); in experiment [12] it was > 100 µM (inactive). The GI50 in experiment [13] was 36.5 µM (inactive); in experiment [14], > 100 µM (inactive); in experiment [15] it was 29.6 µM (inactive); in experiment [16], > 100 µM (inactive); in experiment [17] it was 86.7 µM (inactive); in experiment [18], > 100 µM (inactive). For the same compound, the GI50 in [19] is > 100 µM (inactive); in [20], 43.8 µM (inactive).

Take `CC(=O)NNc1nc(C)c(C(/C=C/c2ccc(NC(C)=O)cc2)=N/NS(=O)(=O)c2ccc(C)cc2)s1`: the GI50 in experiment [1], in experiment [2], in experiment [3], in experiment [4], in experiment [5] and in experiment [6] was > 100 µM (inactive) throughout. Moreover, the GI50 in experiment [7], in experiment [8], in experiment [9], in experiment [10], in [11] and in [12] was > 100 µM (inactive) in each case. The GI50 in [13], in experiment [14], in experiment [15], in [16], in [17] and in [18] was > 100 µM (inactive) in each case. Further, the GI50 in experiment [19] and in experiment [20] was > 100 µM (inactive) in each case.

On to `CCCC[S+]([O-])CCC(N)C(=O)O` (stereo not given), for which the GI50 in [1], in [2], in [3], in experiment [4], in experiment [5] and in experiment [6] was > 100 µM (inactive) in each case. For the same compound, the GI50 was > 100 µM (inactive) in experiment [7]; 1.94 µM (inactive) in experiment [8]; > 100 µM (inactive) in experiment [9]; > 100 µM (inactive) in experiment [10]; > 100 µM (inactive) in experiment [11]; > 100 µM (inactive) in experiment [12]. For the same compound, the GI50 in [13], in experiment [14], in experiment [15], in experiment [16], in [17] and in [18] was > 100 µM (inactive) throughout. Moreover, the GI50 in experiment [19] and in experiment [20] was > 100 µM (inactive) each time.

Turning to `O=C1C(OC(=O)c2ccccc2)=C(c2ccc(O)cc2)C(=O)C(OC(=O)c2ccccc2)=C1c1ccc(O)cc1`, the GI50 is > 100 µM (inactive) in [1]; 40.3 µM (inactive) in experiment [2]; > 100 µM (inactive) in experiment [3]; > 100 µM (inactive) in experiment [4]; > 100 µM (inactive) in experiment [5]; > 100 µM (inactive) in [6]. Besides, the GI50 in experiment [7] is 36 µM (inactive); in experiment [8] it was > 100 µM (inactive); in experiment [9], > 100 µM (inactive); in experiment [10], 74.1 µM (inactive); in [11], > 100 µM (inactive); in [12], 38.1 µM (inactive). Further, the GI50 is 51.9 µM (inactive) in [13]; > 100 µM (inactive) in experiment [14]; > 100 µM (inactive) in [15]; 56.2 µM (inactive) in experiment [16]; > 100 µM (inactive) in [17]; 78.5 µM (inactive) in experiment [18]. For the same compound, the GI50 was > 100 µM (inactive) in experiment [19] and 40.5 µM (inactive) in [20].

Regarding `COC(=O)c1cc(C#N)[nH]c1-c1cc(Br)cs1`, the GI50 in experiment [1] was 13.3 µM (inactive); in [2], > 41.7 µM (inactive); in experiment [3] it was 12.8 µM (inactive); in [4], 14.5 µM (inactive); in experiment [5], 14.3 µM (inactive); in [6] it was 20.2 µM (inactive). Further, the GI50 is 17.9 µM (inactive) in experiment [7]; 10.8 µM (inactive) in [8]; 6.67 µM (inactive) in experiment [9]; 19.8 µM (inactive) in experiment [10]; 2.1 µM (inactive) in experiment [11]; 4.78 µM (inactive) in experiment [12]. Further, the GI50 in experiment [13] is 4.54 µM (inactive); in experiment [14] it was 16.3 µM (inactive); in experiment [15], 17.7 µM (inactive); in [16], 13.4 µM (inactive); in experiment [17] it was 14.9 µM (inactive); in experiment [18], 2.69 µM (inactive). The GI50 is 17.7 µM (inactive) in experiment [19] and 13.3 µM (inactive) in [20].
